Tests used:
Assay type in all cases: cell-based
GP2d = assay: Cell proliferation (cell count by microscopy), Example 3; conditions: single agent, 72 h, cell count relative to DMSO, unit (micromolar, top dose 10 μM)
Procedure: (§1) COMPOUNDS A, B and C were dissolved in 100% DMSO (Sigma, Catalog number D2650) at concentrations of 20 mM and stored at −20° C. until use. Compounds were arrayed in drug master plates (Greiner, Catalog number 788876) and serially diluted 3-fold (7 steps) at 2000× concentration.
(§2) To test the effect of the combination of COMPOUND A, COMPOUND B, and COMPOUND C on cell proliferation cells were plated in black 384-well microplates with clear bottom (Matrix/Thermo Scientific, Catalog number 4332) in 50 μL media per well at cell densities between 500 and 1250 cells/well (Table 1 above) and allowed to incubate at 37 degrees, 5% CO2 for 24 h. After 24 h one 384-well plate per cell line was prepared for cell counting by microscopy (see below) without receiving treatment (=‘baseline’). The other cell plates were treated by transferring 25 nL of the 2000× compound from drug master plates using an ATS acoustic liquid dispenser (ECD Biosystems) and resulting in a final 1× concentration. COMPOUND A was used over a final concentration range of 13 nM-10 μM, COMPOUND B was used over a final concentration range of 13 nM-10 μM, and COMPOUND C was used over a final concentration range of 13 nM-10 μM (7 1:3 dilution steps). In order to assess the effect of the triple combination all individual COMPOUNDS (A, B, C), all three pair wise combinations (A+B, A+C, B+C), and the triple combination (A+B+C) were tested in the same experiment. Pair wise combinations and the triple combination were tested at a fixed ratio of 1:1 (for drug pairs) and 1:1:1 (for the drug triple) at each dilution resulting in 7 combination conditions per treatment. […] After compound addition 50 nL of 2 mM CellEvent Caspase-3/7 Green Detection Reagent (ThermoFisher, Catalog number C10423) were added to one of the three replicates using the HP D300 Digital Dispenser (Tecan). Caspase 3/7 induction was measured as a proxy for apoptosis induced by the treatments. Cells were treated for 72 h to 96 h depending on their doubling time (Table 1), and Caspase 3/7 activation was measured every 24 h by microscopy using an InCell Analyzer 2000 (GE Healthcare) equipped with a 4× objective and FITC excitation/emission filters. At the end of the treatment cells were prepared for cell counting by microscopy. Cells were fixed and permeabilised for 45 minutes in 4% PFA (Electron Microscopy Sciences, Catalog number 15714), 0.12% TX-100 (Electron Microscopy Sciences, Catalog number 22140) in PBS (Boston Bioproducts, Catalog number BM-220). After washing cells three times with PBS their DNA was stained for 30 minutes with Hoechst 33342 (ThermoFisher, Catalog number H3570) at a final concentration of 4 μg/mL. Cells were washed three times with PBS and then plates were heat-sealed using a PlateLoc (Agilent Technologies) with aluminum seals (Agilent Technologies, Catalog number 06644-001) and stored at 4° C. until imaging. All cells per well/treatment were captured in a single image by fluorescence microscopy using an InCell Analyzer 2000 (GE Healthcare) equipped with a 4× objective and DAPI excitation/emission filters.
(§3) Images were analyzed after adapting previously described methods (Horn, Sandmann et al. 2011, Nat. Methods 8(4): 341-346) and using the Bioconductor package EBImage in R (Pau, Fuchs et al. 2010, Bioinformatics 26(7):979-981). Objects in both channels, DAPI (for Hoechst/DNA) and FITC (for Caspase 3/7), were segmented separately by adaptive thresholding and counted. A threshold for Caspase 3/7 positive objects was defined manually per cell line after comparing negative controls (DMSO) and positive controls (Staurosporine). By analyzing 17 additional object/nuclei features in the DNA channel (shape and intensity features) debris/fragmented nuclei were identified. To this end per cell line the distributions of the additional features between positive controls (Staurosporine) and negative controls (DMSO) were compared manually. […]

HCT-116 = assay: as above; conditions: Homo sapiens; HCT-116, single agent, 72 h, cell count relative to DMSO
Procedure: as §1, §2, §3

LS-180 = assay: as above; conditions: Homo sapiens, LS180; LS-160 (so in the source), single agent, 72 h, cell count relative to DMSO
Procedure: as §1, §2, §3

LoVo = assay: as above; conditions: Homo sapiens, single agent, 96 h, cell count relative to DMSO
Procedure: as §1, §2, §3

RKO = assay: as above; conditions: Homo sapiens, single agent, 72 h, cell count relative to DMSO
Procedure: as §1, §2, §3

[1] = system: 5 TP53 wild type colorectal cancer cell lines; assay: Cell proliferation over the cell line panel, Example 3; conditions: Example 3, panel of 5 lines, 13 nM-10 μM
Procedure: To test the effect of the combination of COMPOUND A, COMPOUND B, and COMPOUND C on cell proliferation cells were plated in black 384-well microplates with clear bottom (Matrix/Thermo Scientific, Catalog number 4332) in 50 μL media per well at cell densities between 500 and 1250 cells/well (Table 1 above) and allowed to incubate at 37 degrees, 5% CO2 for 24 h. After 24 h one 384-well plate per cell line was prepared for cell counting by microscopy (see below) without receiving treatment (=‘baseline’). The other cell plates were treated by transferring 25 nL of the 2000× compound from drug master plates using an ATS acoustic liquid dispenser (ECD Biosystems) and resulting in a final 1× concentration. COMPOUND A was used over a final concentration range of 13 nM-10 μM, COMPOUND B was used over a final concentration range of 13 nM-10 μM, and COMPOUND C was used over a final concentration range of 13 nM-10 μM (7 1:3 dilution steps). In order to assess the effect of the triple combination all individual COMPOUNDS (A, B, C), all three pair wise combinations (A+B, A+C, B+C), and the triple combination (A+B+C) were tested in the same experiment. […] Caspase 3/7 induction was measured as a proxy for apoptosis induced by the treatments. Cells were treated for 72 h to 96 h depending on their doubling time (Table 1), and Caspase 3/7 activation was measured every 24 h by microscopy using an InCell Analyzer 2000 (GE Healthcare) equipped with a 4× objective and FITC excitation/emission filters. […] All cells per well/treatment were captured in a single image by fluorescence microscopy using an InCell Analyzer 2000 (GE Healthcare) equipped with a 4× objective and DAPI excitation/emission filters.
Images were analyzed after adapting previously described methods (Horn, Sandmann et al. 2011, Nat. Methods 8(4): 341-346) and using the Bioconductor package EBImage in R (Pau, Fuchs et al. 2010, Bioinformatics 26(7):979-981). Objects in both channels, DAPI (for Hoechst/DNA) and FITC (for Caspase 3/7), were segmented separately by adaptive thresholding and counted. […]

Structure (SMILES) | IC50 (GP2d) | IC50 (HCT-116) | IC50 (LS-180) | IC50 (LoVo) | IC50 (RKO) | Single agent growth inhibition, in words [1]
Cc1nc(NC(=O)N2CCC[C@H]2C(N)=O)sc1-c1ccnc(C(C)(C)C(F)(F)F)c1 [COMPOUND A, (S)-Pyrrolidine-1,2-dicarboxylic acid 2-amide 1-({4-methyl-5-[2-(2,2,2-trifluoro-1,1-dimethyl-ethyl)-pyridin-4-yl]-thiazol-2-yl}-amide)] | 500 nM | 9.8 µM | > 10000 nM | > 10000 nM | 3900 nM | inhibited the growth of 2 of the cell lines with micromolar IC50 values, and was active only at the highest dose (10 μM) in the 3 other lines
COc1cc2c(cc1OC(C)C)[C@H](c1ccc(Cl)cc1)N(c1ccc(N(C)C[C@H]3CC[C@H](N4CCN(C)C(=O)C4)CC3)cc1)C(=O)C2 [COMPOUND B, (S)-1-(4-Chloro-phenyl)-7-isopropoxy-6-methoxy-2-(4-{methyl-[4-(4-methyl-3-oxo-piperazin-1-yl)-trans-cyclohexylmethyl]-amino}-phenyl)-1,4-dihydro-2H-isoquinolin-3-one] | 800 nM | 0.1 µM | 700 nM | 600 nM | 1200 nM | inhibited the growth of cell lines with sub-micromolar to micromolar IC50 values

Source: patent publication US20180318275A1, “COMBINATION THERAPY USING PI3K INHIBITOR AND MDM2 INHIBITOR” (Novartis AG, priority 2015, published 2018)
